Test results: patent publication US20230312652A1, “NOVEL PEPTIDES AND USES THEREOF” (Aarhus Universitet, priority 2020, published 2023)
Where a SMILES comes first, the peptide text is derived from it.

Assays:
[1] = tested on: CYP450 enzymes; experiment: Cytochrome P450 inhibition in liver microsomes; assay type: in vitro ADME; conditions: dose-range of P1, with or without NADPH
Procedure: Liver microsomes were prepared with cocktails of known substrates of the respective CYP450 enzymes to evaluate the effects of P1 on enzyme inhibition. For each CYP-enzyme a previously described inhibitor was used as a positive control. Sample solutions were pre-incubated with P1 (10 mM) or inhibitor at 37° C. for ten minutes before addition of NADPH. Enzyme activity was measured in samples containing a dose-range of P1 with or without NAPDH (substrate used by the liver enzymes in detoxification steps). Reactions were incubated for 10 minutes before the reactions were stopped and analysed by LCMS to detect CYP metabolites.

[2] = Liver microsome stability, mouse; assay type: in vitro ADME; conditions: 2 μM, up to 60 minutes
Procedure: Reactions were stopped at timepoints between 0-60 min. and samples analysed by LCMS.

[3] = tested on: GRN+/- hippocampal neurons; experiment: Dendritic branching of GRN+/- hippocampal neurons; assay type: cell-based, mouse; conditions: 1 uM, 72 hours
Procedure: To further validate the therapeutic potential of peptide P1 in frontotemporal dementia, its neurotrophic activity in GRN heterozygous hippocampal neurons isolated from p0 mice was investigated. Heterozygous loss of function mutations in the progranulin gene, GRN, cause frontotemporal dementia^68. To assess this, we measured the dendritic branching of GRN+/− hippocampal neurons in vitro following treatment. 10000 neurons were seeded per coverslip. After 24 hours the medium was changed to medium containing 1 uM of peptide P1. Hereafter, the cells were incubated at 37° C. for 72 hours before being fixed in 4% PFA for 20 minutes at room temperature. The neurons were subsequently stained against MAP2 to determine cell morphology. Images were taken using a confocal microscope and the neurite branches were analysed using Zen Image Processing (Carl Zeiss). The total number of branches were calculated per neuron. Student's t-test was used for statistical analysis.

[4] = tested on: GRN+/- hippocampal neurons; experiment: Lysosomal acidification in GRN+/- hippocampal neurons, LysoSensor DND-189; assay type: cell-based, mouse; conditions: 1 uM, 4 hours
Procedure: Primary hippocampal neurons from GRN+/− mice were seeded in an 8-well ibidi chamber pre-coated with Poly-I and laminin. 75,000 neurons were seeded pr. well. After 5 days in vitro the neurons were stimulated for 4, 8 or 24 hours with peptide P1 at 1 uM in neurobasal A with B27. After stimulation, the medium was changed to pre-warmed (37° C.) neurobasal A containing 1 uM of LysoSensor probe DND-189 (an acidotropic probes that accumulates in acidic organelles as the result of protonation) and incubated for 30 min. at 37° C. in a 5% C02 atmosphere. Hereafter, the media was changed to pre-warmed FluoroBrite Medium and the neurons were imaged in Olympus microscopy system. Pictures were taken of the lysosomes and processed using the ScanR imaging software to give fluorescence (intensity) of each lysosomal vesicle. The summed total intensity of all lysosomes was calculated and divided by the total number of neurons imaged yielding the total intensity of lysosomes per neuron. Student's t-test was used for statistical analysis.

[5] = tested on: HTT in GM04719 fibroblasts; experiment: Huntingtin levels in Huntington's patient-derived fibroblasts (GM04719), western blotting; assay type: cell-based, human
Procedure: GM04719 was seeded at 30,000-50,000 per well in a 96-well. The following day, the cells were treated with 1 uM of P1 and incubated at 37° C. and 5% CO2 at timepoints 0-24 hours. Hereafter, the cells were lysed in RIPA lysis buffer containing cOmplete cocktail protease inhibitor. Total Huntingtin levels were analysed using antibody mab2166 (Sigma-Aldrich) by western blotting and normalized to beta-actin. To determine, whether P1 also clears the healthy allele, we further assessed levels of total HTT in fibroblast derived from a healthy individual (GM01650E), bought from Coriell Biobank.
To get a direct measurement and further validation of the selective degradation of the disease-allele another study was carried out in GM04719 fibroblasts. Here, at 30,000-50,000 were seeded per well in a 96-well. The following 3 days, the cells were treated with 1 uM of P1 every 24 hour and during this incubated at 37° C. and 5% CO2. 24 hours after third treatment, the cells were lysed in RIPA lysis buffer containing cOmplete cocktail protease inhibitor. Mutated Huntingtin levels were measured using antibody, which only detects the disease-allele (MW1 ab). Total Huntingtin levels were likewise analysed using antibody mab2166 and both were normalized to beta-actin.

[6] = tested on: R6/2 mice (mouse model of Huntington's); experiment: Stereological analysis of regional brain volume in R6/2 mice; assay type: in vivo; conditions: 13 mg/kg SC daily, 8 to 12 weeks of age
Procedure: The brain was cut using a fine razor blade and one hemisphere (right) was directly put into ice-cold 4% PFA in PBS for 24 hours, and then transferred to a 30% sucrose PBS solution for 48 hours and stored at 4° C.
The PFA fixed hemispheres were imbedded in TissueTec and sliced on a cryostat at 50 μm thickness. For stereology, every 5th section was sampled using the principle of systematic random sampling, giving a section sampling fraction (SSF)=1/5.
The sections were mounted on chrome-gelatin-coated slides and Nissl stained with a 0.25% thionine solution (thionin, Sigma T3387). Image acquisition and analysis was performed using the newCAST system (Visiopharm, Horsholm, Denmark). This system consists of an Olympus light microscope (Olympus BX50, Olympus, Denmark) modified for stereology with a digital camera (PixeLINK PLA686C, Canada) and a motorized microscope stage (Prior H138 with controller H29, Cambridge, UK). The newCAST software was interfaced to the digital camera superimposing the counting frames on the live images.
The volume estimation was carried out using the Cavalieri principle for quantifying the total volume of the hippocampus, striatum and mid-part of the cortex (6 slides used for this) using a 4× lens.

[7] = tested on: TDP-43(ΔNLS)-YFP; experiment: Clearance of cytoplasmic TDP-43 in HEK293 cells, western blotting; assay type: cell-based; conditions: dose-range of P1, 24 hours
Procedure: 100,000 HEK293T cells were seeded in a 24-well plate per well. At 60% confluency the cells were transfected with a form of TDP-43-YFP with a mutated nuclear localization signal (TDP-43(ΔNLS)-YFP) to restrict TDP-43 to the cytosol, which is the pathogenic localization in frontotemporal dementia^67. After 24 hours, the cells were treated with a dose-range of peptide P1 and further incubated for another 24 hours. The cells were subsequently lysed in lysis buffer containing DTT and cOmplete cocktail protease inhibitor. The levels of TDP-43 were validated by western blotting using an anti-GFP antibody and the levels were normalized to beta-actin.

Structure (SMILES): CSCC[C@@H]1NC(=O)[C@H](C(C)C)NC(=O)[C@H](CC(=O)O)NC(=O)[C@H](CCC(=O)O)NC(=O)[C@H](CCC(=O)O)NC(=O)[C@H](Cc2c[nH]cn2)NC(=O)[C@H](CCC(=O)O)NC(=O)[C@H](C(C)C)NC(=O)[C@@H]2CCCN2C(=O)[C@H](CCC(=O)O)NC(=O)[C@H]([C@@H](C)O)NC1=O [Peptide P1, [MTEPVEHEEDV]] (cyclo(MTEPVEHEEDV))
- CYP-inhibition [1]: no CYP-inhibition effects
- clearance and stability in liver microsomes [2]: low clearance and high stability
- number of branches per neuron [3]: increased branching
- lysosomal intensity (lysosomal acidification) [4]: lysosomal intensity was increased
- reduction of mutated Huntingtin (disease-allele, MW1 antibody) ([5]; 1 uM every 24 hour for 3 days): 20%
- total Huntingtin (mab2166) ([5]; 1 uM every 24 hour for 3 days): not lowering the total amount of Huntingtin significantly
- total HTT levels ([5]; 1 uM, 8 hours of stimulation): reduces total HTT levels
- cortical volume [6]: tendency of increasing
- hippocampal volume [6]: tendency of increasing
- cytoplasmic TDP-43 levels [7]: decreased the pathogenic cytoplasmic form of TDP-43
